Data from US7223793B2, “Phenolic acid derivatives and composition for preventing or treating blood lipid level-related diseases comprising the same” (Bionutrigen Co., Ltd., priority 2001, dated 2007).
Marks after values point to notes of the source that are not given here.

What was measured:
[1] = tested on: New Zealand White rabbits; experiment: Morphological observation of liver tissue of cholesterol-fed rabbits (Experimental Example 7, Step 4)
Description: Healthy male New Zealand White rabbits, each weighing about 2.0 to 2.3 kg, were supplied from Yeonam Horticulture and Animal Husbandry College (Korea) and raised under a breeding environment of temperature 20±2° C., relative humidity 55±10%, and photoperiod 12L/12D. The rabbits were divided into 5 groups, which were fed with 5 different diets, i.e., the control group fed with RC4 diet (Oriental Yeast Co., Japan) comprising moisture (7.6%), crude protein (22.8%), crude fat (2.8%), crude ash (8.8%), crude cellulose (14.4%) and soluble nitrogen-free substances (43.7%) plus cholesterol (1%) and four treatment groups further fed with lovastatin or BN30063, BN30064, BN30067 in addition to the feed of the control group. The rabbits were fed for 8 weeks while being allowed free access to the diets and water.
Proportions of cells in the liver acinus containing excessive fat or modified to have irregular arrangement due to a high cholesterol diet were classified into four grades, from 1+ to 4+.

[2] = tested on: New Zealand White rabbits; experiment: Fatty streak in the main artery of cholesterol-fed rabbits (Experimental Example 7, Step 2); type: in vivo, rabbit; conditions: 8 weeks; for Proportion of stained region (fatty streak region) per unit area of the artery: 1% cholesterol + RC4 diet, lovastatin 0.003 wt %, BN compounds 0.025 wt %, average ± standard deviation; for Proportion of the fatty streak region compared to the control group: 1% cholesterol diet
Description: The rabbits raised in Step 1 were sacrificed and their chests were incised. The incision was performed downward to the diaphragm along the aortic arch and the fat surrounding the main artery was removed. The main artery was incised in the middle along the longitudinal axis from the second aortic intercostal artery anastomoses to the seventh aortic intercostal artery anastomoses and fixed with 10% neutral buffered formalin for 24 hours. Then, the incised main artery was pinned to a dish for staining of fatty streaks according to the method of Esper, E., et al. {J. Lab. Clin. Med., 121, 103-110 (1993)}. The artery was washed with propylene glycol three times for 2 minutes respectively. The artery was stained for 30 minutes with a saturated solution of Oil Red O (ORO, Sigma Co.) dissolved in propylene glycol. Thereafter, the artery was washed with 85% propylene glycol twice for 3 minutes respectively to remove the remaining staining solution and, then the artery was washed with physiological saline once. The artery was photographed and the photograph was traced. The proportion (%) of stained region (fatty streak region) per unit area of the artery was determined with an image analyzer (LEICA, Q-600, Germany). The significant differences between the test groups were tested by student t-test using Microsoft excel (version 7.0) program

ACAT = ACAT activity in liver microsomes of treated rats (Experimental Example 6, Step 3); type: in vivo, rat; conditions: liver microsomes of rats fed 6 weeks; for ACAT activity: average; for ACAT activity inhibition: relative to control group
Description: 1 g of the liver tissue taken from each sacrificed rat of Step 1 was homogenized in 5 ml of the first homogenization medium {0.1 M KH2PO4(pH 7.4), 0.1 mM EDTA and 10 mM β-mercaptoethanol}. The homogenate was centrifuged at 3,000×g for 15 minutes at 4° C. and the supernatant thus obtained was put into a tube and centrifuged at 15,000×g for 15 minutes at 4° C. to obtain a supernatant. The resulting supernatant was put into a 5 mL ultracentrifuge tube (Beckman) and centrifuged at 100,000×g for 1 hour at 4° C. The supernatant was removed off and pellets thus obtained were suspended in 3 mL of the first homogenization medium and centrifuged at 100,000×g for 1 hour at 4° C. The resulting supernatant was removed off and pellets thus obtained were suspended in 1 ml of the first homogenization medium. The resulting suspension was stored in a deep freezer.
6.67 μl of 1 mg/ml cholesterol solution in acetone was mixed with 6 μl of 10% Triton WR-1339 (Sigma Co.) in acetone. Acetone was removed from the mixture by evaporation under a nitrogen flow. To the resulting mixture, distilled water was added to adjust the concentration of cholesterol to 300 mg/10 ml. 10 μl of the resulting aqueous cholesterol solution was mixed with 10 μl of 1 M KH2PO4 (pH 7.4), 5 μl of 0.6 mM bovine serum albumin (BSA), 10 μl of the microsome solution obtained as above and 55 μl of distilled water (total 90 μl). The mixture was pre-incubated in a water bath at 37° C. for 30 minutes.
10 μl of oleyl-CoA solution […] prepared by mixing radiolabelled oleyl-CoA with oleyl-CoA was added to the pre-incubated mixture and the resulting mixture was incubated in a water bath at 37° C. for 30 minutes. 500 μl of isopropanol:heptane mixture (4:1 (v/v)), 300 μl of heptane and 200 μl of 0.1 M KH2PO4 (pH 7.4) were added to the mixture. The mixture was mixed vigorously using a vortex mixer and then allowed to stand at room temperature for 2 minutes.
200 μl of the resulting supernatant was put in a scintillation bottle and 4 mL of scintillation fluid (Lumac) was added thereto. The mixture was assayed for radioactivity with a scintillation counter. ACAT activity was calculated from the measured radioactivity, which was used to determine the ACAT activity inhibition (%).

Row | SMILES | Grade of abnormal fat content in the liver acinus ([1]; rabbit, in vivo) | Liver tissue morphology ([1]; rabbit, in vivo) | Proportion of stained region (fatty streak region) per unit area of the artery [2] | Proportion of the fatty streak region compared to the control group [2] | ACAT activity (ACAT) [pmol/minute/mg protein] | ACAT activity inhibition (ACAT) [%] | Grade of abnormal fat content in the liver acinus ([1]; 1+ (0–25%), 2+ (26–50%), 3+ (51–75), 4+ (76–100%), rabbits, 1% cholesterol diet, 8 weeks, average ± standard deviation) | Liver tissue morphology ([1]; rabbits, 1% cholesterol diet, 8 weeks)
1 | COC(=O)C(CO)NC(=O)CCc1ccc(O)c(O)c1 (stereo not drawn) [BN30063, 2-[3-(3,4-dihydroxyphenyl)propionylamino]-3-hydroxy propionic acid methyl ester] | 3.71 ± 0.35 | not observed any abnormality | 44.8 ± 10.5% | significantly lower | 186.56 | 0 | – | –
2 | CC(C)CC(NC(=O)CCc1ccc(O)c(O)c1)C(=O)O (stereo not drawn) [BN30064, 2-[3-(3,4-dihydroxyphenyl)propionylamino]-4-methyl pentanoic acid] | 3.70 ± 0.10 | not observed any abnormality | 31.2 ± 11.6^b % | significantly lower | 152.49 | 18.07 | – | –
3 | O=C(O)CC(NC(=O)CCc1ccc(O)c(O)c1)C(=O)O (stereo not drawn) [BN30067, 2-[3-(3,4-dihydroxyphenyl)propionylamino]-succinic acid] | 3.82 ± 0.8 | not observed any abnormality | 43.0 ± 13.9^b % | significantly lower | 160.01 | 14.03 | – | –
4 | CC[C@H](C)C(=O)O[C@H]1C[C@@H](C)C=C2C=C[C@H](C)[C@H](CC[C@@H]3C[C@@H](O)CC(=O)O3)[C@H]21 [Lovastatin, reference compound] | – | – | 30.3 ± 12^b % | significantly lower | 166.66 | 10.46 | 3.83 ± 0.5^b | a grade higher than that of the control group
